Measurements taken from patent publication US11865119B2, “Methods of treating agitation and other dementia-associated behavioral symptoms” (Woolsey Pharmaceuticals, Inc., priority 2021, dated 2024).

Columns and labels:
[1] = system: agitation in patients with Alzheimer's Dementia (AD); test: Clinical trial of oral fasudil in reducing agitation in patients with Alzheimer's Dementia (CMAI, NPI-Q); format: in vivo, human; conditions: cutoff moved from 0 to 35 in 5-point increments; FIG. 3
Method: All the patients were treated for 6 weeks with 90 mg per day (30 mg TID) and a subset of patients was treated an additional 6 weeks with 180 mg per day (60 mg TID). […] A variety of assessments were conducted at baseline and at the end of treatment, including the NPI-Q and the CMAI.
Two baseline thresholds were set, and two analyses were done based on the two groupings that resulted. One threshold was based on the agitation/aggression domain of the NPI-Q and the other based on the CMAI score.
The first selection was based on NPI-Q score of ≥4.
The second selection required a baseline CMAI score of ≥20 and this yielded a 13-patient subgroup, having a mean baseline CMAI score of 34.4. […] All the patients selected using the NPI-Q agitation/aggression domain score of ≥4 were also included in this subgroup.
The analysis looked at the CMAI score prior to treatment and compared it to the last day of treatment (6 weeks for the 10 patients on the low dose and 12 weeks for the 3 patients on the high dose).
Finally, to examine the effects of changing the CMAI-C threshold, 5-point increments were used to move the cutoff from 0 to 35. […] It was concluded that setting the CMAI-C threshold of at least 5 provided a meaningful result over the population, even though higher thresholds we more powerful at detecting change.

mice = conditions: six-month old mice; 10 mg/kg oral gavage once a day for 30 days; assessed over final 3 days; vs water; cited from earlier work

O=S(=O)(c1cccc2cnccc12)N1CCCNCC1 [fasudil]
effect of changing the baseline CMAI-C threshold on magnitude of observed effect [1]: As the threshold increased, so did the magnitude of the observed effect
amount of time spent in the open arms of the maze (mice): significantly reduced
